These are literature values, as cited in US20090196935A1, “Pharmaceutical Capsules Comprising Extended Release Dipyridamole Pellets” (priority 2008, published 2009).

Each structure is given as a SMILES string.

For data set [1] the following is noted: in vivo.
Assay in data set [2]: not given
This is another data set of the same source.

Turning to `OCCN(CCO)c1nc(N2CCCCC2)c2nc(N(CCO)CCO)nc(N3CCCCC3)c2n1` [Dipyridamole, 2,6-bis-(diethanolamino)-4,8-dipiperidino-(5,4-d)-pyrimidine], the biological half-life entry in data set [1] is “less than one hour”. Further, the “solubility in acidic mediums” value (acidic mediums with a pH below 4) is given as “soluble”. For the same molecule, the “solubility in dilute acids” value (dilute acids) is reported as “soluble”. In addition, the solubility in water result (water) is “practically insoluble”. In addition, for the setting “water at a pH greater than 4”, the “solubility in water at a pH greater than 4” value is “practically insoluble”. Under “weak base, medium not stated”, the solubility result is on record as “poor solubility”. In addition, the pKa in data set [2] is reported as 6.1.

As usually defined, the pKa is the pH at which an ionisable group is half protonated.
